# Structures can show the parent of a compound that is named as a salt. Where two headings read alike, the source gives them in different places.
# Target: T1, 5-HT3 receptors (Rattus norvegicus, UniProt P35563)
# T1 construct: from tissue; host or cells: whole anesthetized rat (in vivo)
# T1 sequence (P35563 24-483): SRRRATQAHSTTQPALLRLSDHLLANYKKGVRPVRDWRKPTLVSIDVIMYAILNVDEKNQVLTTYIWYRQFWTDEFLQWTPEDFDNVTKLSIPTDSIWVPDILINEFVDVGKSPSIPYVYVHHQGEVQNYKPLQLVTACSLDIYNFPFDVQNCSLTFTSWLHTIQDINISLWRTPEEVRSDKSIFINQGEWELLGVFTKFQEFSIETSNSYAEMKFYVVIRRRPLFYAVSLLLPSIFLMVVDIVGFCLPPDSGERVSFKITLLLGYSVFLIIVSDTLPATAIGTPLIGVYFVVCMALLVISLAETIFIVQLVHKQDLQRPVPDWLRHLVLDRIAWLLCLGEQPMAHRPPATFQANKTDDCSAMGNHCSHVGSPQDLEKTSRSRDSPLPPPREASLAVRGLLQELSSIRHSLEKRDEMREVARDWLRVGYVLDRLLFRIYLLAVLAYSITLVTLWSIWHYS
# Test: Bezold-Jarish reflex in anesthetized rats (serotonin-induced bradycardia and hypotension)
# Format: in vivo
# Settings: iv, antagonist injected 5 min before serotonin (20 μg/kg i.v.), urethane-anesthetized rats
# From the text: As already mentioned hereinbefore the new compounds of formula (I), according to the present invention, have interesting pharmacological properties owing to their ability to antagonize the physiological 5-HT effects at 5-HT3 receptors in warm-blooded animals. Therefore the new compounds are commercially useful in the prevention and in the treatment of disorders wherein 5-HT3 receptors are involved, such as chemotherapy or radiation induced nausea and emesis, migraine, delayed gastric emptying, stress-induced psychological disorders, irritable bowel syndrome, arrhytmia and rhinitis.
# Bezold-Jarish Reflex in Anesthetized Rats
# Rats (250-275 g) were anesthetized with urethane (1.25 g/kg ip.). The blood pressure and the heart rate were recorded from the left femoral artery by means of a pressure transducer (Statham) connected with a cardiotachometer. The Bezold-Jarish reflex was elicited by rapid intravenous injection of serotonin (20 μg/kg).
# Increasing doses of antagonists were injected 5 min. before serotonin to evaluate their effect on the initial bradycardia and associated fall in blood pressure resulting from the reflex vagal stimulation. In other experiments, the right vagus nerve was stimulated with platinum electrodes at 10 V, 10 Hz, 2 msec, (Grass 248 stimulator), to evoke bradycardia. ED50 values were calculated by linear regression analysis of the data expressed as percentage inhibition.
# [1] = inhibition of fall in blood pressure, read-out: Hypotension ED50
Structure (SMILES),ED50 [1] [µg/kg],"ED50 (inhibition of initial bradycardia, read-out: Bradycardia ED50) [µg/kg]"
"N=CN1[C@@H]2CC[C@H]1C[C@@H](OC(=O)c1cc(Cl)cc(Cl)c1)C2 [Compound 15, endo-(8-Iminomethyl-8-azabicyclo-[3.2.1]oct-3-yl)-3,5-dichlorobenzoate hydrochloride]",0.5,0.2
"N=CN1[C@@H]2CC[C@H]1C[C@@H](OC(=O)c1c[nH]c3ccccc13)C2 [Compound 16, endo-8-(Iminomethyl-8-azabicyclo[3.2.1]oct-3-yl)-1H-indol-3-carboxylate hydrochloride]",0.3,
